± gives the expanded uncertainty stated by the source.
Assay: mn = molality of the nth substance listed, in mol/kg
Conditions: for surface tension liquid-gas: Ring tensiometer; for viscosity / speed of sound / mass density: 100 kPa, Liquid; for viscosity: Capillary tube (Ostwald / Ubbelohde) method; for speed of sound: Frequency=3 MHz, Single path-length method; for mass density: Vibrating tube method

C1N2CN3CN1CN(C2)C3 [1,3,5,7-tetraazaadamantane] + O
Conditions	mass density [kg/m3]	speed of sound [m/s]	surface tension liquid-gas [mN/m]	viscosity [mPa·s]
293.15 K, m1 = 0.207	1004.3 ± 2	1493.6 ± 0.7	69.2 ± 0.9	1.075 ± 0.05
293.15 K, m1 = 0.425	1010.5 ± 2	1504.9 ± 0.7	67.4 ± 0.9	1.168 ± 0.05
293.15 K, m1 = 0.654	1016.6 ± 2	1516.5 ± 0.7	66.2 ± 0.9	1.287 ± 0.051
293.15 K, m1 = 0.897	1022.9 ± 2	1528.8 ± 0.7	65.4 ± 0.9	1.419 ± 0.051
293.15 K, m1 = 1.164	1029.5 ± 2	1541.8 ± 0.7	64.8 ± 0.9	1.579 ± 0.051
293.15 K, m1 = 1.449	1036.1 ± 2	1555.9 ± 0.7	64.4 ± 0.9	1.711 ± 0.051
293.15 K, m1 = 1.748	1042.9 ± 2	1569.3 ± 0.7	64 ± 0.9	1.911 ± 0.051
293.15 K, m1 = 2.068	1049.6 ± 2	1583.3 ± 0.7	63.7 ± 0.9	2.142 ± 0.052
293.15 K, m1 = 2.412	1056.3 ± 2	1597.1 ± 0.7	63.5 ± 0.9	2.477 ± 0.052
293.15 K, m1 = 2.779	1063.3 ± 2	1611.8 ± 0.8	63.3 ± 0.9	2.777 ± 0.052
293.15 K, m1 = 3.181	1070.4 ± 2	1626.9 ± 0.8	63.2 ± 0.9	3.217 ± 0.053
293.15 K, m1 = 3.617	1077.6 ± 2	1642.5 ± 0.8	63.1 ± 0.9	3.698 ± 0.054
293.15 K, m1 = 4.088	1084.9 ± 2	1658.4 ± 0.8	63 ± 0.9	4.214 ± 0.056
293.15 K, m1 = 4.609	1092.3 ± 2	1674.7 ± 0.8	62.9 ± 0.9	4.991 ± 0.058
293.15 K, m1 = 5.155	1099.8 ± 2	1691.4 ± 0.8	62.9 ± 0.9	5.869 ± 0.06
303.15 K, m1 = 0.207	1001.6 ± 2	1519 ± 0.7	67.5 ± 0.9	0.88 ± 0.05
303.15 K, m1 = 0.425	1007.7 ± 2	1529.4 ± 0.7	66.1 ± 0.9	0.942 ± 0.05
303.15 K, m1 = 0.654	1013.8 ± 2	1539.3 ± 0.7	65 ± 0.9	1.025 ± 0.05
303.15 K, m1 = 0.897	1019.9 ± 2	1550 ± 0.7	64.2 ± 0.9	1.085 ± 0.05
303.15 K, m1 = 1.164	1026.4 ± 2	1561.1 ± 0.7	63.5 ± 0.9	1.193 ± 0.05
303.15 K, m1 = 1.449	1032.9 ± 2	1573.6 ± 0.7	62.9 ± 0.8	1.309 ± 0.051
303.15 K, m1 = 1.748	1039.4 ± 2	1585 ± 0.7	62.5 ± 0.8	1.472 ± 0.051
303.15 K, m1 = 2.068	1046 ± 2	1597.4 ± 0.7	62.2 ± 0.8	1.631 ± 0.051
303.15 K, m1 = 2.412	1052.9 ± 2	1609.3 ± 0.7	61.9 ± 0.8	1.875 ± 0.051
303.15 K, m1 = 2.779	1059.7 ± 2	1622.1 ± 0.7	61.7 ± 0.8	2.094 ± 0.051
303.15 K, m1 = 3.181	1066.6 ± 2	1635.2 ± 0.8	61.5 ± 0.8	2.402 ± 0.052
303.15 K, m1 = 3.617	1073.6 ± 2	1648.7 ± 0.8	61.4 ± 0.8	2.743 ± 0.052
303.15 K, m1 = 4.088	1080.8 ± 2	1662.4 ± 0.8	61.3 ± 0.8	3.092 ± 0.053
303.15 K, m1 = 4.609	1088 ± 2	1676.5 ± 0.8	61.2 ± 0.8	3.635 ± 0.054
303.15 K, m1 = 5.155	1095 ± 2	1690.9 ± 0.8	61.2 ± 0.8	4.21 ± 0.056
313.15 K, m1 = 0.207	998 ± 2	1538 ± 0.7	66.3 ± 0.9	0.718 ± 0.05
313.15 K, m1 = 0.425	1004.1 ± 2	1546.6 ± 0.7	64.7 ± 0.9	0.761 ± 0.05
313.15 K, m1 = 0.654	1010.1 ± 2	1555.4 ± 0.7	63.5 ± 0.9	0.806 ± 0.05
313.15 K, m1 = 0.897	1016.1 ± 2	1565 ± 0.7	62.8 ± 0.8	0.87 ± 0.05
313.15 K, m1 = 1.164	1022.5 ± 2	1574.7 ± 0.7	62.1 ± 0.8	0.936 ± 0.05
313.15 K, m1 = 1.449	1028.9 ± 2	1585.8 ± 0.7	61.5 ± 0.8	1.017 ± 0.05
313.15 K, m1 = 1.748	1035.4 ± 2	1595.6 ± 0.7	61.1 ± 0.8	1.158 ± 0.05
313.15 K, m1 = 2.068	1041.8 ± 2	1606.6 ± 0.7	60.7 ± 0.8	1.26 ± 0.051
313.15 K, m1 = 2.412	1048.3 ± 2	1616 ± 0.7	60.5 ± 0.8	1.441 ± 0.051
313.15 K, m1 = 2.779	1055 ± 2	1627.1 ± 0.7	60.3 ± 0.8	1.597 ± 0.051
313.15 K, m1 = 3.181	1061.8 ± 2	1638.5 ± 0.8	60.2 ± 0.8	1.82 ± 0.051
313.15 K, m1 = 3.617	1068.7 ± 2	1650.1 ± 0.8	60.1 ± 0.8	2.063 ± 0.051
313.15 K, m1 = 4.088	1075.6 ± 2	1661.9 ± 0.8	60 ± 0.8	2.296 ± 0.052
313.15 K, m1 = 4.609	1082.7 ± 2	1674 ± 0.8	59.9 ± 0.8	2.687 ± 0.052
313.15 K, m1 = 5.155	1089.8 ± 2	1687.2 ± 0.8	59.9 ± 0.8	3.084 ± 0.053
323.15 K, m1 = 0.207	993.9 ± 2	1549.2 ± 0.7	65.1 ± 0.9	0.596 ± 0.05
323.15 K, m1 = 0.425	999.7 ± 2	1557.4 ± 0.7	63.4 ± 0.8	0.635 ± 0.05
323.15 K, m1 = 0.654	1005.6 ± 2	1566.1 ± 0.7	62.1 ± 0.8	0.671 ± 0.05
323.15 K, m1 = 0.897	1011 ± 2	1574.4 ± 0.7	61.2 ± 0.8	0.716 ± 0.05
323.15 K, m1 = 1.164	1018 ± 2	1583 ± 0.7	60.5 ± 0.8	0.755 ± 0.05
323.15 K, m1 = 1.449	1024.3 ± 2	1593.1 ± 0.7	60.1 ± 0.8	0.819 ± 0.05
323.15 K, m1 = 1.748	1030.7 ± 2	1601.3 ± 0.7	59.7 ± 0.8	0.908 ± 0.05
323.15 K, m1 = 2.068	1037.1 ± 2	1611.1 ± 0.7	59.5 ± 0.8	0.985 ± 0.05
323.15 K, m1 = 2.412	1043.5 ± 2	1620 ± 0.7	59.2 ± 0.8	1.131 ± 0.05
323.15 K, m1 = 2.779	1050.1 ± 2	1629.6 ± 0.7	59 ± 0.8	1.233 ± 0.051
323.15 K, m1 = 3.181	1056.8 ± 2	1639.4 ± 0.8	58.9 ± 0.8	1.387 ± 0.051
323.15 K, m1 = 3.617	1063.5 ± 2	1649.3 ± 0.8	58.8 ± 0.8	1.569 ± 0.051
323.15 K, m1 = 4.088	1070.4 ± 2	1659.4 ± 0.8	58.7 ± 0.8	1.77 ± 0.051
323.15 K, m1 = 4.609	1077.3 ± 2	1669.7 ± 0.8	58.6 ± 0.8	2.027 ± 0.051
323.15 K, m1 = 5.155	1084.2 ± 2	1680.2 ± 0.8	58.6 ± 0.8	2.327 ± 0.052

Source: the NIST ThermoML archive (doi:10.1021/acs.jced.8b00492)
